This assay is described as follows: Nav1.5 Assay: To assess the potential cardiac liability of compounds at an early stage in the drug discovery process, a Nav1.5 sodium channel screening assay was be performed on Molecular Device's PatchXpress™ automated electrophysiology platform. Under voltage-clamp conditions, Nav1.5 currents were recorded from HEK cells expressing the human Nav1.5 channel in the absence and presence of increasing concentrations of the test compound to obtain an IC50 value. The external recording solution contained (in mM): 90 TEACl, 50 NaCl, 1.8 CaCl, 1 MgCl2, 10 HEPES, 10 glucose, adjusted to pH 7.4 with TEA-OH and to 300 mOsm with sucrose (if necessary), while the internal patch pipette solution contained (in mM): 129 CsF, 2 MgCl2, 11 EGTA, 10 HEPES, 3 Na2ATP adjusted to pH 7.2 with CsOH and to 290 mOsm with sucrose (if necessary). Nav1.5 channel currents were evoked using a cardiac action potential waveform at 1 Hz, digitized at 31.25 kHz and low-pass filtered at 12 kHz. The following applies: HEK293.

Molecules are shown by their SMILES.

Turning to `NCc1nc2cc(C(F)(F)F)cc(C(F)(F)F)c2[nH]1`, the IC50 – broadly, the concentration that gives 50% inhibition – is above 10 µM.
For the compound `O=C1CNCCN1Cc1nc2cc(C(F)(F)F)cc(C(F)(F)F)c2[nH]1`, the IC50 was above 10 µM.
For `O=C1CNCCN1Cc1nc2cc(C(F)(F)F)c(C(F)(F)F)cc2[nH]1`, the 50% inhibitory concentration (IC50) was above 10 µM.
Consider `NCC(=O)NCc1nc2cc(Cl)c(Cl)cc2[nH]1`, for which the IC50 is above 10 µM.
For `NCCc1nc2cc(C(F)(F)F)cc(C(F)(F)F)c2[nH]1`, the IC50 was above 10 µM.
`CNCc1nc2cc(C(F)(F)F)cc(C(F)(F)F)c2[nH]1`: the IC50 was above 10 µM.
For `CC(C)(N)Cc1nc2cc(C(F)(F)F)cc(C(F)(F)F)c2[nH]1` the value was 3.6 µM.
On to `CC(C)C[C@H](CN)Cc1nc2c(C(F)(F)F)cc(C(F)(F)F)cc2[nH]1`, for which the IC50 was above 10 µM.
With `NCC(=O)NCc1nc2cc(C(F)(F)F)cc(C(F)(F)F)c2[nH]1`, the IC50 was above 10 µM.
With `NCCCc1nc2cc(C(F)(F)F)cc(C(F)(F)F)c2[nH]1`, the IC50 worked out at 7.5 µM.
For `CC1(NC(=O)CN2CC(Cc3nc4c(C(F)(F)F)cc(C(F)(F)F)cc4[nH]3)C2)CCC1` the value was above 10 µM.
For `CC(C)(N)C(=O)NCc1nc2cc(C(F)(F)F)cc(C(F)(F)F)c2[nH]1` the value was above 10 µM; for `FC(F)(F)c1cc(C(F)(F)F)c2nc(CC3CNC3)[nH]c2c1`, above 10 µM.

The record behind these values is ChEMBL document CHEMBL5725348, “Benzimidazole inhibitors of the sodium channel” (2017).
